# Source: publication PMC12128972, “TYRA-300, an FGFR3-selective inhibitor, promotes bone growth in two FGFR3-driven models of chondrodysplasia” (JCI Insight, 2025)
# Where “and” joins values, the source holds several entries; their conditions need not be identical. Identical values can stand only once.
# Legend:
# Format in all cases: in vivo, mouse
# [1] = Pharmacokinetic study, single subcutaneous dose, plasma by LC-MS/MS; settings: for plasma concentration, individual mice: 1.2 mg/kg s.c.
# Method: The pharmacokinetic profile of TYRA-300 in adult rats has been previously described ([31]). Because the FGFR3-driven skeletal dysplasia models are performed using neonatal mice, an experiment was designed to understand the pharmacokinetics of TYRA-300 at a relevant efficacious dose in male and female mice, ranging from 1 to 12 weeks of age. In this experiment, TYRA-300 plasma levels were measured following administration of a single 1.2 mg/kg subcutaneous dose. […] There was a similar AUCinf in 2-week-old mice (2,295 h × ng/mL). […] Cytochrome P450 enzymes are commonly responsible for the metabolism of TKIs. In mice, cytochrome P450s are not fully developed until the mice are at least 3 weeks of age ([33]), which may explain the higher level of TYRA-300 exposure in the younger mice.
# C57BL/6J (The Jackson Laboratory) mice were randomized to treatment groups according to body weight. Owing to the young age of some groups, a mixture of female and male mice was used. Depending on the age of mice, 3–8 mice per group were dosed with a single subcutaneous dose of TYRA-300 (1.2 mg/kg) and then blood was collected either serially at 3 different time points (if 4 weeks of age and older) or terminally at a single time point (if 1–3 weeks of age). Mouse plasma was harvested using lithium heparin tubes at 0.5, 1, 4, 6, 8, 12, and 24 hours after dosing. Compound concentration from plasma was detected using liquid chromatography with tandem mass spectrometry at Oakland Analytics.
# [2] = system: growth plate chondrocytes of Fgfr3^Y367C/+ mice; test: Fgfr3Y367C/+ mice: histology and immunohistochemistry of distal femur growth plate (H&E, collagen type X, PCNA, HZC count)
# Method: To understand the effects of TYRA-300 treatment on the growth plate cartilage and chondrocytes and the mechanism through which TYRA-300 increases bone growth, histological analysis of the femurs of Fgfr3^Y367C/+ mice was performed. […] Treatment also facilitated angiogenesis, deposition of bone matrix, and resorption of the cartilage. In addition, the overall structure of the growth plate was more organized after treatment with TYRA-300. […] The organization of the hypertrophic zone, with HZCs organized in columns, appeared similar in TYRA-300–treated Fgfr3^Y367C/+ mice and Fgfr3^+/+ mice. Within the hypertrophic zone of TYRA-300–treated mice, the HZCs were larger than in vehicle-treated mice.
# (§1) The right femur and lumbar vertebrae segment L4–L6 were collected and fixed in 4% paraformaldehyde, decalcified with ethylenediaminetetraacetic acid (EDTA) 0.5 M (pH 8) for 2 or 3 weeks, and embedded in paraffin. Serial paraffin sections of 5 μm were stained with hematoxylin, eosin, and Safranin O. For immunohistochemistry, sections were labeled with antibodies against collagen type X (BIOCYC ref. [1]-CO097-05-RUO, 1:100 dilution), collagen type I (Novotec, 20151, dilution 1:1,000), pERK (Cell Signaling, 4370S, dilution 1:1,000), and PCNA (Abcam, GR3195972-6, 1:500 dilution) using the Dako Envision Kit. Images were captured with an Olympus PD70-IX2-UCB microscope and CellSens software (Olympus Life Science Solutions). Cells were counted using ImageJ software (NIH, Laboratory for Optical Computational Instrumentation).
# [3] = system: lumbar vertebrae of Fgfr3^Y367C/+ mice; test: Fgfr3Y367C/+ mice: lumbar vertebrae and intervertebral discs (calipers, histology); settings: 1.2 mg/kg s.c. daily for 15 days
# Method: Individuals with ACH frequently experience back pain and may undergo multiple spinal surgeries throughout their lives ([40]). Kyphosis and scoliosis are common with ACH and are also observed in the Fgfr3^Y367C/+ mouse model ([40]), and Fgfr3 is expressed in the intervertebral discs of Fgfr3^Y367C/+ mice ([28]). To determine how TYRA-300 affects the vertebrae and intervertebral discs, the spine was analyzed in the Fgfr3^Y367C/+ mice treated with TYRA-300 or vehicle.
# Whole body x-ray images were taken of all animals by Faxitron specimen radiography MX-20 (Faxitron X-Ray LLC) following terminal sacrifice. The length of the L4–L6 lumbar vertebra segment was also measured for each animal using calipers, and the height of the L5 vertebral body was measured from Alcian blue/Sirius red images. Long bones and the skull were then excised, and their dimensions were measured using calipers (VWRi819-0013, VWR International). The transverse and sagittal diameters of the foramen magnum were also measured using calipers for the Fgfr3^Y367/+ model, and measured using the μCT images for the Fgfr3^N534K/+ model.
# as §1
# [4] = system: pERK1/2; test: Fgfr3N534K/+ mice: histology and pERK1/2 immunohistochemistry of distal femur; settings: 1.8 mg/kg daily for 21 days
# Method: To confirm the mechanistic effect of TYRA-300 within the growth plate of treated Fgfr3^N534K/+ mice, immunohistochemical analyses were performed on the distal femurs. In contrast to the ACH model, a larger SOC is visible in the femoral epiphysis of HCH mice ([42]), and the effect of TYRA-300 on SOC formation is not obvious. […] It is well established that the MAPK pathway is the canonical FGFR3 downstream signaling pathway. Here, we confirmed that this pathway is still activated at 24 days of age in the HCH growth plate through immunohistochemical staining of phosphorylated ERK1/2 (pERK), which was positive in hypertrophic chondrocytes (Figure 4G).
# as §1, with “Images were captured with an Olympus PD70-IX2-UCB microscope and CellSens software (Olympus Life Science Solutions).” left out
# [5] = system: lumbar vertebrae of Fgfr3^N534K/+ mice; test: Fgfr3N534K/+ mice: histology of lumbar vertebrae and intervertebral disc; settings: 1.8 mg/kg daily for 21 days
# From the text: We also analyzed the lumbar vertebrae and intervertebral disc (Figure 5E).
# as §1
# [6] = 1.2 mg/kg single s.c., 1-week-old mice
compound,measurement,setting,value
C[C@@H](Oc1ccc2[nH]nc(-c3ccc(N4CC5(C4)CN(S(C)(=O)=O)C5)nc3)c2c1)c1c(Cl)cncc1Cl [TYRA-300],"plasma concentration, individual mice","[1]; 1 week old, 12 h, LLOQ 4 ng/mL",37.7 ng/mL and 35.7 ng/mL and 49.1 ng/mL
same,"plasma concentration, individual mice","[1]; 1 week old, 24 h, LLOQ 4 ng/mL",4 ng/mL (2×) and 5.11 ng/mL
same,"plasma concentration, individual mice","[1]; 1 week old, time 0 h, LLOQ 4 ng/mL",4 ng/mL
same,"plasma concentration, individual mice","[1]; 2 weeks old, 0.5 h, LLOQ 8 ng/mL",276 ng/mL and 247 ng/mL and 312 ng/mL
same,"plasma concentration, individual mice","[1]; 2 weeks old, 1 h, LLOQ 8 ng/mL",442 ng/mL and 320 ng/mL and 190 ng/mL
same,"plasma concentration, individual mice","[1]; 2 weeks old, 4 h, LLOQ 8 ng/mL",196 ng/mL and 308 ng/mL and 157 ng/mL
same,"plasma concentration, individual mice","[1]; 2 weeks old, 6 h, LLOQ 8 ng/mL",148 ng/mL and 144 ng/mL and 232 ng/mL
same,"plasma concentration, individual mice","[1]; 2 weeks old, 8 h, LLOQ 8 ng/mL",50.3 ng/mL and 95.4 ng/mL and 202 ng/mL
same,"plasma concentration, individual mice","[1]; 2 weeks old, 12 h, LLOQ 8 ng/mL",42.2 ng/mL and 29.1 ng/mL and 34.4 ng/mL
same,"plasma concentration, individual mice","[1]; 2 weeks old, 24 h, LLOQ 8 ng/mL",8 ng/mL and 10.2 ng/mL and 8.27 ng/mL
same,"plasma concentration, individual mice","[1]; 2 weeks old, time 0 h, LLOQ 8 ng/mL",8 ng/mL
same,"plasma concentration, individual mice","[1]; 3 weeks old, 0.5 h, LLOQ 8 ng/mL",250 ng/mL and 248 ng/mL and 229 ng/mL and 221 ng/mL
same,"plasma concentration, individual mice","[1]; 3 weeks old, 1 h, LLOQ 8 ng/mL",293 ng/mL and 238 ng/mL and 250 ng/mL and 251 ng/mL
same,"plasma concentration, individual mice","[1]; 3 weeks old, 4 h, LLOQ 8 ng/mL",10.2 ng/mL and 12.5 ng/mL and 17.9 ng/mL and 9.9 ng/mL
same,"plasma concentration, individual mice","[1]; 3 weeks old, 6 h, LLOQ 8 ng/mL",8 ng/mL (3×) and 15 ng/mL
same,"plasma concentration, individual mice","[1]; 3 weeks old, 8 h, LLOQ 8 ng/mL",8 ng/mL
same,"plasma concentration, individual mice","[1]; 3 weeks old, 12 h, LLOQ 8 ng/mL",8 ng/mL (3×) and 9.31 ng/mL
same,"plasma concentration, individual mice","[1]; 3 weeks old, 24 h, LLOQ 8 ng/mL",8 ng/mL
same,"plasma concentration, individual mice","[1]; 3 weeks old, time 0 h, LLOQ 8 ng/mL",8 ng/mL
same,"plasma concentration, individual mice","[1]; 4 weeks old, 0.5 h, LLOQ 8 ng/mL",102 ng/mL and 115 ng/mL and 172 ng/mL and 145 ng/mL and 197 ng/mL
same,"plasma concentration, individual mice","[1]; 4 weeks old, 1 h, LLOQ 8 ng/mL",169 ng/mL and 242 ng/mL and 178 ng/mL and 48 ng/mL
same,"plasma concentration, individual mice","[1]; 4 weeks old, 4 h, LLOQ 8 ng/mL",39 ng/mL and 12 ng/mL (2×) and 10 ng/mL
same,"plasma concentration, individual mice","[1]; 4 weeks old, 6 h, LLOQ 8 ng/mL",8 ng/mL (3×) and 16 ng/mL
same,"plasma concentration, individual mice","[1]; 4 weeks old, 8 h, LLOQ 8 ng/mL",8 ng/mL
same,"plasma concentration, individual mice","[1]; 4 weeks old, 12 h, LLOQ 8 ng/mL",8 ng/mL
same,"plasma concentration, individual mice","[1]; 4 weeks old, 24 h, LLOQ 8 ng/mL",8 ng/mL
same,"plasma concentration, individual mice","[1]; 4 weeks old, time 0 h, LLOQ 8 ng/mL",8 ng/mL
same,"plasma concentration, individual mice","[1]; 6 weeks old, 0.5 h, LLOQ 8 ng/mL",150 ng/mL and 198 ng/mL and 171 ng/mL and 172 ng/mL
same,"plasma concentration, individual mice","[1]; 6 weeks old, time 0 h, LLOQ 8 ng/mL",8 ng/mL
same,"AUCinf of 3- through 12-week-old mice, times lower than average of 1- and 2-week-old mice",[1]; 1.2 mg/kg single s.c.,about 3.8 times
same,maximum observed concentration,[1]; [6],287 ng/mL
same,mean AUCinf,[1]; [6],"1,789 h*ng/mL"
same,mean AUCinf,"[1]; 1.2 mg/kg single s.c., 2-week-old mice","2,295 h*ng/mL"
same,average AUCinf,"[1]; 1.2 mg/kg single s.c., 3- through 12-week-old mice",538 ng·h/mL
same,expression of PCNA in distal femoral growth plate,[2]; 1.2 mg/kg s.c. daily for 15 days,a more well-defined positive zone within the growth plate
same,number of HZCs within the ROI vs vehicle,"[2]; 1.2 mg/kg s.c. daily for 15 days, distal femur",significant decrease
same,type X collagen staining in the HZCs,[2]; present study,partial restoration
same,height of the vertebral bodies vs vehicle,[3],increased the height of the vertebral bodies
same,increase in L4-L6 lumbar vertebrae segment length vs vehicle,[3],23.49%
same,shape of the intervertebral disc,[3],decreasing the height and increasing the lateral width of the nucleus pulposus
same,overall architecture of the growth plate (H&E and collagen type X),[4],did not demonstrate significant changes
same,pERK+ cells per ROI vs vehicle,[4]; distal femur growth plate,significant decrease
same,shape of the intervertebral disc,[5],slightly modified the shape of the intervertebral disc
